Assay results taken from patent US11505575B2, “Cyclic polypeptides for PCSK9 inhibition” (Merck Sharp & Dohme LLC, priority 2018, dated 2022).
pIC50: −log10 of the molar value. *1 amine or outer side, *2 acyl side, *3 side chain or, on linkers, in order; H or OH if unused. Where a SMILES comes first, the peptide text is derived from it. Bridges are numbered along the chain shown (N, C = ends). [ ]: non-standard residue; d: D form. The star is where a group is joined. ξ: configuration not given here. Phe(4-guanidino) = N=C(N)Nc1ccc(C[C@H](N)C(=O)O)cc1; X4 = O=C([C@H](Cc1cc2cc(F)ccc2[nH]1)N[*:1])[*:2]; Trp(5-F) = N[C@@H](Cc1c[nH]c2ccc(F)cc12)C(=O)O; Trp(7-aza) = N[C@@H](Cc1c[nH]c2ncccc12)C(=O)O; pY = N[C@@H](Cc1ccc(OP(=O)(O)O)cc1)C(=O)O; mXylylene = c1cc(C[*:1])cc(C[*:2])c1; aThr = C[C@H](O)[C@H](N)C(=O)O; Agp = N=C(N)NC[C@H](N)C(=O)O; Chg = N[C@H](C(=O)O)C1CCCCC1; Tle = CC(C)(C)[C@H](N)C(=O)O; αMeV = CC(C)[C@](C)(N)C(=O)O; Api = NC1(C(=O)O)CCNCC1; Nva = CCC[C@H](N)C(=O)O; ξαMeS = CC(N)(CO)C(=O)O; Aib = CC(C)(N)C(=O)O; Mpa = O=C(O)CCS; X5 = COCC*

Columns and labels:
Type in all cases: binding
PCSK9 [1] = target: T1, PCSK9 (Homo sapiens, UniProt Q8NBP7); assay: PCSK9 Alexa FRET Plus assay (displacement of AlexaFluor647-tagged cyclic peptide Reagent B); details: 0.5 nM PCSK9, 960 nM AF cyclic peptide Reagent B
T1 construct: biotin (biotinylated)
T1 sequence (Q8NBP7 153-692): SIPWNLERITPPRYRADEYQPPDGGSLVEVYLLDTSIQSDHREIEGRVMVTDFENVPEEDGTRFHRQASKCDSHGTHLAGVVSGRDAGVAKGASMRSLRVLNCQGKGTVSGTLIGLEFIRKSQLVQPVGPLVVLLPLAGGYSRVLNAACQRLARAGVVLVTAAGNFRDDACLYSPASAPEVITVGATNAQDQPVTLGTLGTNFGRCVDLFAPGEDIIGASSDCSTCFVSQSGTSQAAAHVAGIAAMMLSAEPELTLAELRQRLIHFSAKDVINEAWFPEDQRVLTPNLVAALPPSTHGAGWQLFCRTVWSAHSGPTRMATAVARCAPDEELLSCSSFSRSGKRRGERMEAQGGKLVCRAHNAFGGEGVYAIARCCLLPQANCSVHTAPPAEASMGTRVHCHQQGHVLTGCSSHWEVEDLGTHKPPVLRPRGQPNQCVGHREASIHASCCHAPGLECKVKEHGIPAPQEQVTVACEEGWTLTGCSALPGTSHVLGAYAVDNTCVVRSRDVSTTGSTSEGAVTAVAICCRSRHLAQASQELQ
Experimental: A solution containing 1 nM biotinylated PCSK9+2.5 nM Lance Streptavidin Europium (Strep-Eu) was made in 50 mM HEPES pH 7.4, 0.15 M NaCl, 5 mM CaCl2, 0.01% BSA, and 0.01% Surfactant P20. A separate solution containing 1920 nM of the AlexaFluor tagged cyclic peptide was made in the same buffer system. An Echo was used to transfer 0.075 ul of compound plus 0.675 ul of DMSO to each well of an assay plate followed by the addition of 15 ul of PCSK9+Stept-Eu and 15 ul of AF peptide. The final assay volume was 30.750 ul containing 0.5 nM PCSK9, 1.25 nM Strep-Eu, and 960 nM AF cyclic peptide. The reaction was incubated at room temperature for at least two hours prior to fluorescence measurements using an Envision Multilabel Reader. IC50 values were determined by fitting data to a sigmoidal dose-response curve using nonlinear regression. Ki was then calculated from the IC50 and the KD of AF cyclic peptide. Counts (B-counts) of the europium-labeled PCSK9 were followed to observe if compounds were adversely affecting PCSK9. A fall off of the B-counts likely indicated a false positive of inhibition. Data from this procedure was reported as “P=‘numerical value’ (nanomolar)”

PCSK9 [2] = target: T1, PCSK9; assay: PCSK9 Alexa FRET Standard assay (displacement of AlexaFluor647-tagged cyclic peptide Reagent A); details: 0.5 nM PCSK9, 20 nM AF cyclic peptide Reagent A
Experimental: A solution containing 1 nM biotinylated PCSK9+2.5 nM Lance Streptavidin Europium (Strep-Eu) was made in 50 mM HEPES pH 7.4, 0.15 M NaCl, 5 mM CaCl2, 0.01% BSA, and 0.01% Surfactant P20. A separate solution containing 40 nM of the AlexaFluor tagged cyclic peptide was made in the same buffer system. An Echo was used to transfer 0.750 ul of compound to an assay plate followed by the addition of 15 ul of PCSK9+Stept-Eu and 15 ul of AF peptide. The final assay volume was 30.750 ul containing 0.5 nM PCSK9, 1.25 nM Strep-Eu, and 20 nM AF cyclic peptide. The reaction was incubated at room temperature for at least two hours prior to fluorescence measurements using an Envision Multilabel Reader. IC50 values were determined by fitting data to a sigmoidal dose-response curve using nonlinear regression. Ki was then calculated from the IC50 and the KD of AF cyclic peptide. Counts (B-counts) of the europium-labeled PCSK9 were followed to observe if compounds were […]. A fall off of the B-counts likely indicated a false positive of inhibition. Data from this procedure was reported as “A=‘numerical value’ (nanomolar)”

[3] = target: human PCSK9 / human LDLR EGFa domain interaction (Homo sapiens, UniProt Q8NBP7); assay: TR-FRET assay of inhibition of the PCSK9-LDLR protein-protein interaction; details: 20 nM biotinylated human PCSK9 + 20 nM his-tagged human LDLR EGFa domain, 2 hours room temperature
human PCSK9 / human LDLR EGFa domain interaction, sequence (Q8NBP7 153-692): as above
human PCSK9 / human LDLR EGFa domain interaction, sequence (Q8NBP7 31-152 partner limits assumed): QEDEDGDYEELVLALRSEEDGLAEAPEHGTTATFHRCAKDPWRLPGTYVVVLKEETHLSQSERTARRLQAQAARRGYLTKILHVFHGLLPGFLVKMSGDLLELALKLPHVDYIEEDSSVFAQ
Summary of the method: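 Biotinylated human PCSK9 (20 nM) and His-tagged human LDLR EGFa domain (20 nM) incubated with Ulight-streptavidin and Eu-anti-His (5 nM each), 2 h at room temperature, in HEPES pH buffer with 5 mM CaCl2. TR-FRET read-out; IC50 from 4-parameter fit of dose-response.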

SMILES	pIC50 (PCSK9 [1])	pIC50 (PCSK9 [2])	pIC50 [3]
CC(=O)N[C@H]1CSCc2cccc(c2)CSC[C@H](C(N)=O)NC(=O)[C@H]([C@H](C)O)NC(=O)[C@](C)(C(C)C)NC(=O)[C@H](Cc2ccc(OP(=O)(O)O)cc2)NC(=O)[C@H](C)NC(=O)C(C)(C)NC(=O)[C@H](Cc2c[nH]c3ncccc23)NC(=O)[C@H]([C@@H](C)O)NC(=O)[C@@H]2CCCN2C(=O)[C@H](Cc2ccc(O)cc2)NC(=O)[C@H](C(C)(C)C)NC1=O [Compound 039] (Ac-C[Tle]YPT[Trp(7-aza)][Aib]A[pY][αMeV][aThr][dC]-NH2; linker 1-12 via mXylylene)	7.00 to 9.00	6.00 to 7.00	–
CC(=O)N[C@H]1CSCc2cccc(c2)CSC[C@H](C(N)=O)NC(=O)[C@H]([C@@H](C)O)NC(=O)[C@](C)(C(C)C)NC(=O)[C@H](Cc2ccc(O)cc2)NC(=O)[C@H](C)NC(=O)C2(CCNCC2)NC(=O)[C@H](Cc2c[nH]c3ncccc23)NC(=O)[C@H]([C@@H](C)O)NC(=O)[C@@H]2CCCN2C(=O)[C@H](Cc2ccc(O)cc2)NC(=O)[C@H](C(C)(C)C)NC1=O [Compound 034] (Ac-C[Tle]YPT[Trp(7-aza)][Api]AY[αMeV]T[dC]-NH2; linker 1-12 via mXylylene)	7.00 to 9.00	7.00 to 9.00	–
CCC[C@@H]1NC(=O)[C@H](Cc2c[nH]c3ncccc23)NC(=O)[C@H]([C@@H](C)O)NC(=O)[C@@H]2CCCCNC(=O)CC[C@H](NC1=O)C(=O)N[C@@H](Cc1ccc(O)cc1)C(=O)N[C@@H](C1CCCCC1)C(=O)N[C@@H]([C@@H](C)O)C(=O)N[C@@H](C(N)=O)CSCc1cccc(c1)CSCCC(=O)N[C@@H](C(C)(C)C)C(=O)N[C@@H](Cc1ccc(O)cc1)C(=O)N2 [Compound 107] ([Mpa][Tle]YKT[Trp(7-aza)][Nva]EY[Chg]T[dC]-NH2; linker 1-12 via mXylylene; lactam 4-8)	–	7.00 to 9.00	7.00 to 9.00
CCC[C@@H]1NC(=O)[C@H](Cc2c[nH]c3ncccc23)NC(=O)[C@H]([C@@H](C)O)NC(=O)[C@H](CNC(=N)N)NC(=O)[C@H](Cc2ccc(O)cc2)NC(=O)[C@H](Cc2cc3cc(F)ccc3[nH]2)NC(=O)[C@@H](NC(=O)[C@H](Cc2ccc(NC(=N)N)cc2)NC(C)=O)CSCc2cccc(c2)CSC[C@@H](C(N)=O)NC(=O)[C@H]([C@@H](C)O)NC(=O)[C@H](CCC)NC(=O)[C@H](Cc2ccc(O)cc2)NC(=O)[C@H](CCC(=O)O)NC1=O [Compound 091] (Ac-[Phe(4-guanidino)]C[X4]Y[Agp]T[Trp(7-aza)][Nva]EY[Nva]TC-NH2; linker 2-13 via mXylylene)	–	7.00 to 9.00	6.00 to 7.00

Second part, the molecule after the results:

pIC50 (PCSK9 [1])	pIC50 (PCSK9 [2])	pIC50 [3]	SMILES
7.00 to 9.00	7.00 to 9.00	–	CC(C)[C@](C)(NC(=O)[C@H](Cc1ccc(O)cc1)NC(=O)[C@H](C)NC(=O)C(C)(C)NC(=O)[C@H](Cc1c[nH]c2ncccc12)NC(=O)[C@@H](NC(=O)[C@@H]1CCCN1C(=O)[C@@H]1Cc2ccc(O)c(c2)CCCC[C@H](N)C(=O)N[C@@H](C(C)(C)C)C(=O)N1)[C@@H](C)O)C(N)=O [Compound 032]
7.00 to 9.00	7.00 to 9.00	–	COCCOCC1(C)NC(=O)[C@H](Cc2c[nH]c3ncccc23)NC(=O)[C@H]([C@@H](C)O)NC(=O)[C@@H]2CCCN2C(=O)[C@H](Cc2ccc(O)cc2)NC(=O)[C@H](C(C)(C)C)NC(=O)[C@@H](NC(C)=O)CSCc2cccc(c2)CSC[C@H](C(N)=O)NC(=O)[C@H]([C@@H](C)O)NC(=O)[C@](C)(C(C)C)NC(=O)[C@H](Cc2ccc(O)cc2)NC(=O)[C@H](C)NC1=O (some centres unmarked) [Compound 036] (Ac-C[Tle]YPT[Trp(7-aza)][ξαMeS](X5)AY[αMeV]T[dC]-NH2; linker 1-12 via mXylylene)
7.00 to 9.00	7.00 to 9.00	–	CC(=O)N[C@H]1CSCc2cccc(c2)CSC[C@H](C(N)=O)NC(=O)[C@H]([C@H](C)O)NC(=O)[C@](C)(C(C)C)NC(=O)[C@H](Cc2ccc(O)cc2)NC(=O)[C@H](C)NC(=O)C(C)(C)NC(=O)[C@H](Cc2c[nH]c3ncccc23)NC(=O)[C@H]([C@@H](C)O)NC(=O)[C@@H]2CCCN2C(=O)[C@H](Cc2c[nH]c3ccc(F)cc23)NC(=O)[C@H](C(C)(C)C)NC1=O [Compound 042] (Ac-C[Tle][Trp(5-F)]PT[Trp(7-aza)][Aib]AY[αMeV][aThr][dC]-NH2; linker 1-12 via mXylylene)
